Test results reported in US7674887B2, “Thrombopoietin mimetics” (GlaxoSmithKline LLC, priority 2000, dated 2010).

What was measured:
human UT7TPO cell line = assay: Proliferation assay using the human UT7TPO cell line; type: cell-based; conditions: UT7TPO cells
Source text: Proliferation Assay Some of the more preferred compounds of this invention were active in an in vitro proliferation assay using the human UT7TPO cell line. UT7TPO cells are a human megakaryoblastic cell line that express Tpo-R, whose survival and growth is dependent on the presence of TPO (Komatsu et al. Blood 1996, 87,4552).

Row | SMILES | melting point | EC50 (human UT7TPO cell line; Homo sapiens, UT7/TPO) [µM] | activity relative to TPO in the proliferation assay (human UT7TPO cell line) [% TPO]
1 | CC1=NN(c2ccc(C)c(C)c2)C(=O)C1=NNc1ccc(-c2cccc(C(=O)O)c2)cc1O [Example 2, 4′-{N′-[1-(3,4-dimethylphenyl)-3-methyl-5-oxo-1,5-dihydropyrazol-4-ylidene]hydrazino}-3′-hydroxybiphenyl-3-carboxylic acid] | 282 °C (dec.) | – | –
2 | CC1=NN(c2ccc(C)c(C)c2)C(=O)C1=NNc1cccc(-c2cccc(C(=O)O)c2)c1O [Example 3, 3′-{N′-[1-(3,4-dimethylphenyl)-3-methyl-5-oxo-1,5-dihydropyrazol-4-ylidene]hydrazino}-2′-hydroxybiphenyl-3-carboxylic acid] | – | 0.03 | 100
3 | CC1=NN(c2ccc(C(C)(C)C)cc2)C(=O)C1=NNc1cccc(-c2cccc(C(=O)O)c2)c1O (hydrate or solvate) [Example 4, 3′-{N′-[1-(4-tert-butylphenyl)-3-methyl-5-oxo-1,5-dihydropyrazol-4-ylidene]hydrazino}-2′-hydroxybiphenyl-3-carboxylic acid] | 145 °C (dec.) | – | –
4 | Cc1ccc(N2N=C(Cl)C(=NNc3cccc(-c4cccc(C(=O)O)c4)c3O)C2=O)cc1C [Example 24, 3′-{N′-[3-Chloro-1-(3,4-dimethylphenyl)-5-oxo-1,5-dihydropyrazol-4-ylidene]hydrazino}-2′-hydroxybiphenyl-3-carboxylic acid] | 210 °C (dec.) | – | –
5 | CC1=NN(c2ccc(C)c(C)c2)C(=O)C1=NNc1ccc(-c2ccc(C(=O)O)cc2)cc1O (hydrate or solvate) [Example 1, 4′-{N′-[1-(3,4-dimethylphenyl)-3-methyl-5-oxo-1,5-dihydropyrazol-4-ylidene]hydrazino}-3′-hydroxybiphenyl-4-carboxylic acid] | 280 °C (dec.) | – | –
